Experimental data taken from US20100239563A1 (priority 2001, published 2010).

Tests used:
[1] = tested on: influenza B virus strain Massachusetts/6/93
[2] = tested on: influenza A virus A/WSN-HK (H3N1); type: cell-based

| Compound | reduction of the number of newly formed infectious influenza B virus particles [1] | titer of infectious virus particles over infection sequences [2] |
| --- | --- | --- |
| N#CC(=C(N)Sc1ccccc1N)C(C#N)=C(N)Sc1ccccc1N [U0126, 1,4-diamino-2,3-dicyano-1,4-bis(2-aminophenylthio)butadiene] | approx. 90% | significant reduction of the influenza virus particles |
| NC12CC3CC(CC(C3)C1)C2 [amantadine, 1-adamantanamine] | – | increased, in spite of the amantadine treatment |
